According to US9951055B2, “Thiazole-based inhibitors of scavenger receptor BI” (THE BROAD INSTITUTE, INC., priority 2012, dated 2018):
Where a chain is given by its changes, count along the chain named. Entries after “also recorded” stand apart in the source; their conditions may differ. Like-named read-outs stand apart in the source and are kept apart here.

Columns and labels:
[1] = test system: ldlA[mSR-BI] cells; assay: Cell cytotoxicity assay (CellTiter-Glo); type: cell-based, Chinese hamster
Description: It is possible that a compound will cause cells to decrease HDL-mediated DiI uptake due to nonspecific consequences of cellular toxicity, representing a second class of false positive hits. The cells were treated with compounds for 3 hours or 24 hours, and then cell viability was measured using the CellTiter-Glo Assay (Promega), a luciferase-based reagent that measures cellular ATP levels. The compounds were tested at different concentrations to determine IC50 values. […] Compounds that were active in the primary assay but toxic below 30 μM at 24 hours (but nontoxic at 3 hours) were still considered. […] Data were normalized against DMSO and the positive control (1 μM BLT-1) in Genedata Assay Analyzer.
All available dry powder samples of the remaining, non-quenching compounds were procured from commercial sources and purities were determined. The compounds obtained were then retested in the primary assay and in the cytotoxicity assays. We wanted to rule out any compounds that were cytotoxic, especially in the 3-hour time span of the primary DiI-HDL uptake assay. Therefore, compounds were tested in ldlA[mSR-BI]cells for cytotoxicity at 3 hours and 24 hours using the CellTiter-Glo assay (Promega) that measures cellular ATP as a marker of cell viability. […] Compounds were screened for inhibition of endocytosis using labeled transferrin, which is known to bind the transferrin receptor, enter cells by clathrin-mediated endocytosis, and move to endosomes before being recycled to the cell surface. The BLT compounds have also been tested for potential interference with endocytosis and show no such activity.

[2] = target: T1, C384S SR-BI (Mus musculus, UniProt Q61009, C384S); assay: Radioactive HDL uptake assay (mutant SR-BI); type: cell-based, murine
T1 construct: expressed in transfected cells; host or cells: CHO cell line lacking LDL receptors (variant of ldlA[mSR-BI])
T1 sequence (Q61009 1-509 C384S): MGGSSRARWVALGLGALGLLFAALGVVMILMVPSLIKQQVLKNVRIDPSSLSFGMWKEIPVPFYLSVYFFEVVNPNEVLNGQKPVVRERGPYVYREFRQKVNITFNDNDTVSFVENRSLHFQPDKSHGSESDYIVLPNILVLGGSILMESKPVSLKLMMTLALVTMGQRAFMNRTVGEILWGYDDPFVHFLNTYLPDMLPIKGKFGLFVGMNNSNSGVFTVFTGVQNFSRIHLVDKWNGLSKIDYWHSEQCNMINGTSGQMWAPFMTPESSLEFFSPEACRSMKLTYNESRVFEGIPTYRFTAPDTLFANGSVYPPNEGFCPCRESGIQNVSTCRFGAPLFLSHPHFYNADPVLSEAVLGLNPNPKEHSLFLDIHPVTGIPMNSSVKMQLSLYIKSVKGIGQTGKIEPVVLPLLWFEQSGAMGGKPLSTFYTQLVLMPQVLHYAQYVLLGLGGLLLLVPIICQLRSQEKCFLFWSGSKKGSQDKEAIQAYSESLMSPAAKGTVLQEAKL
Description: Radioactive HDL Uptake Assay (mutant SR-BI) (SA 9: AID No. 588837)
BLT-1 is known to interact at cysteine 384 of SR-BI (16). […] This assay is used to determine if the compounds work in a similar fashion to BLT-1 and require Cys384 to alter the binding of HDL particles and uptake of the lipid to the mutant SR-BI scavenger receptor, using an alternative means of labeling HDL-cholesterol particles and avoiding any type of fluorescence measurement. To measure this lipid uptake event, HDL particles are labeled with [^3H]cholesteryl ester and added to C384S SR-BI cells. Cells take up HDL lipids via the mutant SR-BI in 2 to 3 hours. After significant uptake of the HDL lipid, the radiolabel can be detected by liquid scintillation counting. The level of radioactivity correlates with the amount of HDL lipid uptake. The uptake of lipid from the HDL particles can be inhibited by the compound BLT-1 or when co-treated with an excess of unlabeled HDL. The mSR-BI cells utilized in the assay are a CHO cell line lacking expression of the LDL receptors and overexpressing the mutant scavenger receptor, C384S SR-BI.

[3] = target: T2, murine SR-BI (Mus musculus, UniProt Q61009); assay: DiI-HDL uptake assay with washout; type: cell-based
T2 construct: expressed in transfected cells; host or cells: ldlA[mSR-BI]; (CHO ldlA7 derivative lacking the LDL receptor)
T2 sequence (Q61009 1-509): T1 sequence (Q61009 1-509 C384S) with S384C
Description: DiI-HDL Uptake Assay with Washout (SA 5: AID No. 588831)
This is a modification of the primary assay where cells are treated with compound prior to the addition of DiI-HDL but no compound is present during the DiI-HDL treatment period. ldlA[mSR-BI]cells were plated into 384-well plates at 30 μl per well and incubated overnight. Cells were treated with compound for 3 hours, then media were removed and the cells were washed with PBS before fresh lipoprotein-free media (Ham's F12/0.5% fatty acid-free Bovine Serum Albumin [BSA]/25 mM HEPES pH 7.4) was added with […] DiI-HDL. Cells took up the DiI via SR-BI over 3 hours in the absence of compound. After significant uptake of the DiI, the cells became fluorescent. The level of fluorescence correlates with the amount of DiI uptake and can be measured with a standard plate reader. The uptake of lipid (represented by DiI) was inhibited by the compound BLT-1.

Row | Structure (SMILES) | cytotoxicity [1] | uptake of HDL in Cys384Ser mutant background [2] | reversibility of inhibition [3] | cytotoxicity ([1]; listed as ML278) | inhibition after washout at the IC50 concentration [3] | IC50 ([3]; cells pre-treated, washed with PBS, DiI-HDL without compound, read-out: IC50 after washout) [µM] | reversibility of inhibition ([3]; listed as ML278) | reversibility of inhibition ([3]; listed as Probe 278)
1 | CCCCCCC1CCCC1=NNC(N)=S (stereo not drawn) [BLT-1, reference compound] | toxic to cells | does not significantly reduce uptake of HDL or efflux of cholesterol | nonreversible covalent modifier of SR-BI | – | – | – | – | –
2 | COCC(=O)N1CCc2cc(-c3csc(NC(=O)c4cc(OC)cc(OC)c4)n3)ccc21 [Compound 137, 3,5-Dimethoxy-N-(4-(1-(2-methoxyacetyl)indolin-5-yl)thiazol-2-yl)benzamide] | – | can reduce uptake and efflux in the mutant background | – | no cytotoxicity at 24 hours; also recorded: shows no cytotoxicity | no inhibition | 0.3 | reversible inhibitor of HDL uptake | reversible inhibitor
